US20220048896A1, “PYRAZOLE COMPOUNDS SUBSTITUTED WITH HETEROARYL AND PHARMACEUTICAL USE THEREOF” (Japan Tobacco Inc., priority 2018, published 2022)

Legend:
Type in all cases: cell-based
[1] = tested on: Salmonella typhimurium TA98; test: Ames test (reverse mutation test), strain TA98; settings: for potential to induce reverse mutations, TA98: in the presence of S9 mix
Method: (§1) Metabolites 1 to 3 and Metabolites A to E were each tested herein. The purpose of this test is to evaluate the potential of each metabolite to induce reverse mutations in the standard strains of Salmonella typhimurium (TA98, TA1537, TA100, and TA1535) and Escherichia coli (WP2uvrA), in either the presence or absence of a rat liver metabolic activation system (S9 mix).
(§2) The solvent used herein was dimethyl sulfoxide (DMSO, 100 μL/plate).
(§3) The test was performed by the pre-incubation method with or without S9 mix. When the test was performed without S9 mix, sodium phosphate buffer solution (pH 7.4) was added.
(§4) 0.5 mL of S9 mix or 0.5 mL of 0.1 mol/L sodium phosphate buffer solution (pH 7.4), and 0.1 mL of the bacterial culture solution were added to a test tube containing 0.1 mL of the negative control formulation (DMSO alone), the metabolite, or the positive control formulation. The mixtures were pre-incubated at 37° C. for 20 minutes while shaking. After the pre-incubation period, 2 mL of top agar were added and the mixtures were vortex-mixed and seeded onto plates. Two plates per treatment were used. Each plate was incubated at 37±1° C. for 48 hours or more and the revertant colonies were counted. The mean number of revertant colonies for each treatment plate was then calculated. The presence or absence of growth inhibition due to any antibacterial effect of the test article and precipitation of the test article was observed grossly or under a stereomicroscope. […] Evaluation was based on mean values with no statistical comparisons being used.

[2] = tested on: Salmonella typhimurium TA1537; test: Ames test (reverse mutation test), strain TA1537
Method: as §1, §2, §3, §4

[3] = tested on: Salmonella typhimurium TA100; test: Ames test (reverse mutation test), strain TA100; settings: in the presence of S9 mix
Method: as §1, §2, §3, §4

[4] = tested on: Salmonella typhimurium TA1535; test: Ames test (reverse mutation test), strain TA1535
Method: as §1, §2, §3
(§5) 0.5 mL of S9 mix or 0.5 mL of 0.1 mol/L sodium phosphate buffer solution (pH 7.4), and 0.1 mL of the bacterial culture solution were added to a test tube containing 0.1 mL of the negative control formulation (DMSO alone), the metabolite, or the positive control formulation. The mixtures were pre-incubated at 37° C. for 20 minutes while shaking. After the pre-incubation period, 2 mL of top agar were added and the mixtures were vortex-mixed and seeded onto plates. Two plates per treatment were used. Each plate was incubated at 37±1° C. for 48 hours or more and the revertant colonies were counted. The mean number of revertant colonies for each treatment plate was then calculated. […]

[5] = tested on: Escherichia coli WP2uvrA; test: Ames test (reverse mutation test), strain WP2uvrA; settings: in the absence of S9 mix
Method: as §1, §2, §3, §5

## CC(C)(Oc1cc(F)cc(-c2cc(N)nn2-c2cnc(C(F)(F)F)nc2)c1)C(F)(F)F [Metabolite 1]
[1]; S9 mix +, 6.9 μg/plate
  Number of revertant colonies TA98: 37
[1]; S9 mix +, 21 μg/plate
  Number of revertant colonies TA98: 39
[1]; S9 mix +, 62 μg/plate
  Number of revertant colonies TA98: 40
[1]; S9 mix +, 185 μg/plate
  Number of revertant colonies TA98: 40
[1]; S9 mix +, 556 μg/plate
  Number of revertant colonies TA98: 34
[1]; S9 mix +, 1667 μg/plate
  Number of revertant colonies TA98: 27
[1]; S9 mix +, 5000 μg/plate
  Number of revertant colonies TA98: 21
[1]; S9 mix −, 6.9 μg/plate
  Number of revertant colonies TA98: 32
[1]; S9 mix −, 21 μg/plate
  Number of revertant colonies TA98: 32
[1]; S9 mix −, 62 μg/plate
  Number of revertant colonies TA98: 31
[1]; S9 mix −, 185 μg/plate
  Number of revertant colonies TA98: 29
[1]; S9 mix −, 556 μg/plate
  Number of revertant colonies TA98: 30
[1]; S9 mix −, 1667 μg/plate
  Number of revertant colonies TA98: 15
[1]; S9 mix −, 5000 μg/plate
  Number of revertant colonies TA98: 7

## Nc1cc(-c2cc(F)cc(OC(F)(F)F)c2)n(-c2cncc(F)c2)n1 [Metabolite 2]
[1]; S9 mix +, 6.9 μg/plate
  Number of revertant colonies TA98: 35
[1]; S9 mix +, 21 μg/plate
  Number of revertant colonies TA98: 37
[1]; S9 mix +, 62 μg/plate
  Number of revertant colonies TA98: 35
[1]; S9 mix +, 185 μg/plate
  Number of revertant colonies TA98: 36
[1]; S9 mix +, 556 μg/plate
  Number of revertant colonies TA98: 22
[1]; S9 mix +, 1667 μg/plate
  Number of revertant colonies TA98: 20
[1]; S9 mix +, 5000 μg/plate
  Number of revertant colonies TA98: 16
[1]; S9 mix −, 6.9 μg/plate
  Number of revertant colonies TA98: 30
[1]; S9 mix −, 21 μg/plate
  Number of revertant colonies TA98: 30
[1]; S9 mix −, 62 μg/plate
  Number of revertant colonies TA98: 28
[1]; S9 mix −, 185 μg/plate
  Number of revertant colonies TA98: 28
[1]; S9 mix −, 556 μg/plate
  Number of revertant colonies TA98: 12
[1]; S9 mix −, 1667 μg/plate
  Number of revertant colonies TA98: 9
[1]; S9 mix −, 5000 μg/plate
  Number of revertant colonies TA98: 7

## Nc1cc(-c2cc(F)cc(OC(F)(F)F)c2)n(-c2cncc(C(F)(F)F)c2)n1 [Metabolite 3]
[1]; S9 mix +, 6.9 μg/plate
  Number of revertant colonies TA98: 36
[1]; S9 mix +, 21 μg/plate
  Number of revertant colonies TA98: 38
[1]; S9 mix +, 62 μg/plate
  Number of revertant colonies TA98: 38
[1]; S9 mix +, 185 μg/plate
  Number of revertant colonies TA98: 33
[1]; S9 mix +, 556 μg/plate
  Number of revertant colonies TA98: 27
[1]; S9 mix +, 1667 μg/plate
  Number of revertant colonies TA98: 25
[1]; S9 mix +, 5000 μg/plate
  Number of revertant colonies TA98: 17
[1]; S9 mix −, 6.9 μg/plate
  Number of revertant colonies TA98: 29
[1]; S9 mix −, 21 μg/plate
  Number of revertant colonies TA98: 28
[1]; S9 mix −, 62 μg/plate
  Number of revertant colonies TA98: 29
[1]; S9 mix −, 185 μg/plate
  Number of revertant colonies TA98: 26
[1]; S9 mix −, 556 μg/plate
  Number of revertant colonies TA98: 24
[1]; S9 mix −, 1667 μg/plate
  Number of revertant colonies TA98: 18
[1]; S9 mix −, 5000 μg/plate
  Number of revertant colonies TA98: 14

## CC(C)(OCc1cc(F)cc(-c2cc(N)nn2-c2ccc(F)cc2)c1)C(F)(F)F [Metabolite A, reference compound]
[1]
  potential to induce reverse mutations, TA98: had potential to induce reverse mutations
[2]; in the presence of S9 mix
  potential to induce reverse mutations, TA1537: had potential to induce reverse mutations

## Nc1cc(-c2cccc(OCC(F)(F)F)c2)n(-c2ccc(F)cc2)n1 [Metabolite B]
[1]
  potential to induce reverse mutations, TA98: had potential to induce reverse mutations
[2]; in the absence of S9 mix
  potential to induce reverse mutations, TA1537: had potential to induce reverse mutations
[2]; in the presence of S9 mix
  potential to induce reverse mutations, TA1537: had potential to induce reverse mutations
[3]
  potential to induce reverse mutations, TA100: had potential to induce reverse mutations
[4]; in the presence of S9 mix
  potential to induce reverse mutations, TA1535: had potential to induce reverse mutations

## Cc1ccc(-n2nc(N)cc2-c2cccc(OCC(F)(F)F)c2)cc1 [Metabolite C]
[5]
  potential to induce reverse mutations, WP2uvrA: had potential to induce reverse mutations
[1]
  potential to induce reverse mutations, TA98: had potential to induce reverse mutations
[2]; in the presence of S9 mix
  potential to induce reverse mutations, TA1537: had potential to induce reverse mutations
[3]
  potential to induce reverse mutations, TA100: had potential to induce reverse mutations

## Nc1cc(-c2cccc(OC(F)(F)F)c2)n(-c2cccc(F)c2)n1 [Metabolite D]
[3]
  potential to induce reverse mutations, TA100: had potential to induce reverse mutations
[4]; in the absence of S9 mix
  potential to induce reverse mutations, TA1535: had potential to induce reverse mutations

## Cc1cccc(-n2nc(N)cc2-c2cccc(OC(F)(F)F)c2)c1 [Metabolite E]
[1]
  potential to induce reverse mutations, TA98: had potential to induce reverse mutations
[2]; in the presence of S9 mix
  potential to induce reverse mutations, TA1537: had potential to induce reverse mutations
[3]
  potential to induce reverse mutations, TA100: had potential to induce reverse mutations
